From patent US5958890A, “Tricyclic compounds useful for inhibition of G-protein function and for treatment of proliferative diseases” (Schering Corporation, priority 1997, dated 1999)

How the values were obtained:
[1] = target: farnesyl protein transferase (Homo sapiens, UniProt P49354+P49356); assay: FPT inhibition, in vitro enzyme assay (procedure of WO 95/10516); format: biochemical
[2] = tested on: COS Cell; assay: COS Cell IC50 (Cell-Based Assay, procedure of WO 95/10516)
Method: FPT IC50 (inhibition of farnesyl protein transferase, in vitro enzyme assay) and COS Cell IC50 (Cell-Based Assay) were determined following the assay procedures described in WO 95/10516, published Apr. 20, 1995. GGPT IC50 (inhibition of geranylgeranyl protein transferase, in vitro enzyme assay), Cell Mat Assay, and anti-tumor activity (in vivo anti-tumor studies) could be determined by the assay procedures described in WO 95/10516. The disclosure of WO 95/10516 is incorporated herein by reference thereto.

| IC50 [1] [nM] | Structure (SMILES) | IC50 [2] [nM] |
| --- | --- | --- |
| 0.0386 | NC(=O)N1CC[C@H](CC(=O)N2CCC(C3c4ncc(Br)cc4CCc4cc(Cl)cc(Cl)c43)CC2)C1 (single isomer, unassigned) [Example 1] |  |
|  | NC(=O)N1CC[C@@H](CC(=O)N2CCC(C3c4ncc(Br)cc4CCc4cc(Cl)cc(Cl)c43)CC2)C1 (single isomer, unassigned) [Example 2] | 0.03 |
